Measurements: patent US4000280A, “Pharmaceutical compositions containing an amphetamine derivative for the alleviation of anxiety or treatment of depression” (Astra Lakemedel Aktiebolag, priority 1975, dated 1976)

What was measured:
mice = experiment: Motor activity in mice (exploratory activity in locomotion cage); type: in vivo; set-up: key to Motor Activity: +: increase; -: decrease; 0: no effect; conditions: for Motor Activity: recorded for 10 minutes 1 hour after administration, compared to control groups, i.p.; for central stimulation (in words): motor activity in mice
Description: The lack of euphoric effects, that is lack of central stimulatory activity, is tested by measuring the motor activity in mice after administration of the test substance.
The exploratory activity of mice was recorded in a locomotion cage in which the movements were counted each time the animals cross-circuits an electrical current in the bottom plate. The activity was recorded for 10 minutes 1 hour after the administration of the drug. The animals were tested individually. Groups of six mice were used and the mice were only used once. The activity was expressed in percent of the activity of control groups ran simultaneously. The compounds were administered in at least four doses. The increase (+) or decrease (-) of the activity compared to control groups was determined from log dose response curves.

isolated mice = experiment: Aggressive behavior in isolated male mice (antiaggressive activity); type: in vivo; conditions: Mus musculus, ip, 5 min; i.p.; dose which reduces the aggressiveness score by 50%; 5 min test; read-out: Antiaggressive behaviour in mice ED50
Description: Potential anxiolytic activity is tested by measuring the antiaggressivity in isolated mice after administration of the test substance. In this test not amphetamine but Valium -- a well-known anxiolytic substance -- is used as a reference.
Male mice kept isolated for 3 weeks or longer develop an aggressive behavior when caged together. The method used follows that of Valzelli et al. (Europ. J. Pharmacol. 2, 144, 1967), with the exception that two mice were tested on each other. The aggressiveness was scored during a 5 min test according to the following schedule:
0 the animals show no interest in each other except occasional nosing
25 frequent vigorous nosing and tail rattling, the animals assume a fighting position and occasionally attack each other -- no more than 3-4 times in the 5 min period
50 tail rattling, powerful attacks -- no more than 10 times in the test period
75 the animals follow their partners, attacking and biting for most of the time
100 attacks over the entire period.
The animals were used for several experiments but with intervals of at least 1 week. Groups of 10 mice were used.
ED50 is the dose which reduces the aggressiveness score by 50%.

5-HTP response = 5-HTP response potentiation test (potentiation of behavioral syndrome after dl-5-HTP); type: in vivo, mice; conditions: Mus musculus, ip; dl-5-HTP 90 mg/kg i.v.; at least five doses; probit analysis (Litchfield and Wilcoxon)
Description: It is not possible by experimental means to induce depressions in laboratory animals. In order to evaluate a possible anti depressive effect on new substances biochemical-pharmacological test methods must be resorted to. One such method, which seems to give a good indication of the potential anti depressive effects of the test substances, is described in Europ. J. Pharmacol. 17, 107, 1972. This method involves the measurement of the potentiation of the syndromes produced by 5-hydroxytryptophan (5-HTP) in a laboratory animal.
Inhibition of the uptake of 5-HT potentiates the effects of administered 5-hydroxytryptophan (5-HTP) probably by increasing the amount of 5-HT at the receptor. Three mice are given the test drugs 1 hour (or 4, 24 hours) before dl-5-HTP, 90 mg/kg i.v. 5-HTP alone gives only a weak behavioral syndrome but in pretreated mice there is seen a characteristic behavioral syndrome, which comes within 5 minutes: tremor, lordosis, abduction of the hind-legs, head-twitches.
The absence or presence of respective syndrome is scored in groups of 10 mice. The compound was administered in at least five doses and the quantal responses were analysed by probit analysis and ED50 determined according to the method of Litchfield and Wilcoxon.

SMILES	Motor Activity (mice)	other results
CC(N)Cc1c(Cl)cc(N(C)C)cc1Cl.Cl.Cl (stereo not drawn) [2-Cl 6-Cl CH3 CH3 H CH3, 2,6-Dichloro-4-dimethylamino-α-methylphenethylamine dihydrochloride]	-	
CC(N)Cc1ccccc1 (stereo not shown) [Amphetamine]		central stimulation (in words) (mice): pronounced
Cc1cc(N(C)C)ccc1CC(C)N.Cl.Cl (stereo not drawn) [H 2-CH 3 CH3 CH3 H CH3, 2-Methyl-4-dimethylamino-α-methylphenethylamine dihydrochloride]	-	
CCC(N)Cc1ccc(N(C)C)cc1Cl (stereo not shown) [H 2-Cl CH3 CH3 H C2 H5]	0	
CC(N)Cc1ccc(N(C)C)cc1Cl.Cl.Cl (stereo not drawn) [H 2-Cl CH3 CH3 H CH3, 2-Chloro-4dimethylamino-α-methylphenethylamine dihydrochloride]	-	
CCN(CC)c1ccc(CC(C)N)cc1 (stereo not shown) [H H C2 H5 C2 H5 H CH3]	-	
CC(N)Cc1ccc2c(c1)CCCN2C.Cl.Cl (stereo not shown) [H H CH3 (CH2)3 H CH3, 6-(2-Aminopropyl)-1-methyl-1,2,3,4-tetrahydroquinoline dihydrochloride]		ED50 (isolated mice): > 5 mg/kg; ED50 (5-HTP response): 1.5 mg/kg
CN(C)c1ccc(CC(C)(C)N)cc1.Cl.Cl [H H CH3 CH3 CH3 CH3, 4-Dimethylamino-α, α-dimethylphenethylamine dihydrochloride]	0	
CC(N)Cc1ccc(Cl)cc1 (stereo not shown) [P-Chloroamphetamine, reference compound]		central stimulation (in words) (mice): pronounced
